From patent US8211893B2, “Protein kinase C zeta inhibition to treat diabetic retinopathy” (The Penn State Research Foundation, priority 2006, dated 2012)
“Also recorded” adds a separate entry of the source. No end group written: not given here. *: point of attachment. Myristoyl = CCCCCCCCCCCCCC(=O)*

Key:
[1] = test system: bovine retinal endothelial cells (BREC); assay: In vitro permeability assay, VEGF stimulated 70 kDa RITC-dextran flux across BREC monolayer on transwell filters; type: cell-based; settings: for effect on VEGF stimulated endothelial permeability to 70 kDa RITC-dextran: peptide inhibitor 50 nM
Method: Endothelial cells are grown to confluence on transwell filters. After the cells have grown to confluence, an additional 2 to 4 days is necessary to allow formation of a tight barrier. This may vary depending on the cell preparation.
Solute flux is measured by applying 10 micromolar or 20 micromolar RITC-dextran or FITC-BSA to the apical chamber of inserts with a confluent endothelial cell monolayer. The specific experiment may dictate when to perturb the system with, for example, a PKC inhibitor, relative to the time of measuring flux. Remember to consider the time for the perturbation to effect transport rates, for example, time for synthesis and assembly or disassembly of the junctional complex.
One half-hour after addition of fluorescent solute, 50 microliter samples are taken from the basolateral chamber. This is continued on the half-hour for up to four hours. The samples are placed into the 96 well black/clear bottom plate. A sample is taken from the apical chamber at the last time point and also placed in the 96 well plate. […] Fluorescence of each aliquot is quantified on a fluorescence plate reader. We use a FluorImager 595. A blank sample with media only but no fluorescent marker should be used for background subtraction. The rate of diffusive flux (Po) is calculated by the following formula at each time point: Po=[(FA/Δt)VA]/(FLA) where Po=diffusive flux (cm/s); FA=basolateral fluorescence; FL=apical fluorescence; Δt=change in time; A=surface area of the filter (cm^2); VA=volume of the basolateral chamber (cm^3). Note that unless the volume removed from the basolateral chamber is replaced, the volume in the basolateral chamber changes for each time point calculated. The data may be reduced as a rate over the total time course of the experiment if the change remains linear. This is done by plotting the change in fluorescence accumulated in the basolateral chamber corrected for fluorescence in the apical chamber, volume and area versus time and then determining the slope of the straight line or rate of diffusive flux, Po.
The fluorescence obtained from each time point is normalized to the fluorescence in the apical chamber. Next this ratio is corrected for the volume in the bottom chamber and this corrected ratio is plotted verses time to determine the rate of fluorescent molecule accumulation by obtaining the slope. Finally, this slope is converted from minutes to seconds and divided by the area of the filter yielding the diffusive flux in cm/s.
Bovine retinal endothelial cells (BREC) are grown to confluence on transwell filters (Costar) and treated with hydrocortisone (100 nM) to induce barrier properties. PKC zeta peptide inhibitor (50 nM, Calbiochem) is applied to the cells 30 min before addition of fluorescent-labeled tracer and VEGF (50 ng/mL, R&D Systems) is applied to the cells for 15 min before addition of tracer. RITC-labeled 70 kDa dextran (Sigma) is used as a tracer for cell permeability measures and is applied to the apical chamber at 10 micromolar. Samples are drawn from the basolateral chamber over a 4 h time course and the rate of tracer accumulation is used to determine monolayer permeability, Po, in cm/s. FIG. 2 illustrates the results of the use the myristoylated peptide inhibitor of PKC zeta on endothelial permeability to 70 kDa RITC-dextran.
Bovine retinal endothelial cells (BREC) are grown to confluence on transwell filters (Costar) and treated with hydrocortisone (100 nM) to induce barrier properties. PKC zeta peptide inhibitor (PKCζ 1) of SEQ ID No. 1 (Calbiochem) is applied to the cells at concentrations of 6.25 nM, 12.5 nM, 25 nM, and 50 nM, 30 min before addition of fluorescent-labeled tracer and VEGF (50 ng/mL, R&D Systems) is applied to the cells for 15 min before addition of tracer. […]

PKC-zeta [2] = molecular target: T1, PKC-zeta (Homo sapiens, UniProt Q05513); assay: IC50 determination for PKC-zeta; type: biochemical; settings: read-out: half-maximal inhibitory concentration, IC50, for PKC-zeta
T1 sequence (Q05513 1-592): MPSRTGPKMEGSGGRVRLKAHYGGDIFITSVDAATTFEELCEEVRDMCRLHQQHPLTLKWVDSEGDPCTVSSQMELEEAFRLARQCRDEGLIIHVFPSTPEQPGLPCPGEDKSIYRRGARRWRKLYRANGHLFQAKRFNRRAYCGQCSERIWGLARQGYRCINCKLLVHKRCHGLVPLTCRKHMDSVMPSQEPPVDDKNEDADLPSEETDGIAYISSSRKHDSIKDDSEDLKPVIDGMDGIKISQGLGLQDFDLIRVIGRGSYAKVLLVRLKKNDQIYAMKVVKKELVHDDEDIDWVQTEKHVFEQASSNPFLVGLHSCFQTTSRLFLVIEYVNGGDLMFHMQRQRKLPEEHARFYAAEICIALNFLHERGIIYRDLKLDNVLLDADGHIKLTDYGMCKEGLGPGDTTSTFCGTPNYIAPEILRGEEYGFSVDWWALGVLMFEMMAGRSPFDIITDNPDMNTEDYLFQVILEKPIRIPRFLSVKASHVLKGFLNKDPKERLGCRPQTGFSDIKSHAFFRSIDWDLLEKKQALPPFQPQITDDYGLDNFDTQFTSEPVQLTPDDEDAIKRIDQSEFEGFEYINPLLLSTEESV
Method: Methods described in this example are used to determine the half-maximal inhibitory concentration, IC50, of a particular PKC zeta inhibitor. A PKC zeta inhibitor is incubated with […] in vitro by addition of the inhibitor to cultured BREC cells, followed by the addition of a labeled permeability marker, 70 kDa RITC dextran.

[3] = test system: retinal albumin flux after VEGF treatment; assay: In vivo VEGF induced retinal permeability, Evan's blue bound albumin flux; settings: rat, intraocular injection with VEGF 50 ng, 5 h
Description: Vascular permeability is quantified in this in vivo model by measuring albumin leakage form blood vessels into the retina. Evans blue is an acid dye of the diazo group that noncovalently binds to albumin in the blood, allowing the breakdown in blood-retinal barrier to be detected when increased vessel leakage is extravasated into the interstitial space.
Rats are used in this example and each animal is weighed and the body weight (BW) recorded for anaesthetic and dye injections. Each animal is anesthetized by intramuscular injection of 1 microliter/g BW a Ketamine/Xylazine mixture equal to […]/6.67 mg Xylazine/kg BW. […]
Both eyes are enucleated and bisected at the equator to harvest the retinas which are optionally dried thoroughly in a Speed-Vac for 5 hours. The weight of the retinas is measured with an analytical balance. […]
The obtained plasma samples are diluted 1:10000 with formamide. […] The absorbance in each well is measured at 620 and 740 nm with a plate reader. The background-subtracted absorbance (A620-A740) is calculated for each sample and the dye concentration is determined using the standard curve. […]
The PKC-zeta I1 is effective at reducing retinal albumin flux in vivo after VEGF treatment. […] Flux to albumin is measured using the albumin binding dye Evan's blue. […] Evan's blue is eluted from the retinas in formamide and read spectrophotometrically. […]

BREC cultures = assay: Invitrogen Live/Dead assay, calcein AM and ethidium homodimer-1; type: cell-based; settings: 10 micromolar, 24 h, confluent BREC, alone or with VEGF; listed as PKC-zeta I1
Method: Cell viability is measured using the Invitrogen Live/Dead assay according to manufacturer's instructions. Confluent BREC cultures are treated with 10 micromolar PKC-zeta I1 for 24 h. Cell viability is measured with calcein AM incorporation and cell death is measured by ethidium homodimer-1 staining followed by fluorescence quantification on a Molecular Devices Gemini fluorescence plate reader.

PKC-zeta [4] = molecular target: T1, PKC-zeta; assay: In vitro screen for PKC zeta inhibitors, Kinase-Glo Luminescent Kinase assay with CREBtide substrate; type: biochemical; design: purchased Biomol International SE-413; settings: tested at 100 micromolar; relative to compound of formula (I)
Method: A screen for PKCzeta inhibitors was developed using recombinant human enzyme from Biomol International (SE-413) and CREBtide (Biomol P195) as the substrate. PKCzeta is incubated for 8 min at 30° C. in 50 microliters of buffer containing 5 mM MgCl2, 100 micromolar Na3VO4, 100 micromolar NaP2O7, 1 mM NaF. 100 micromolar PMSF, 50 mM Tris (pH 7.5), 4 micrograms of phosphatidylserine, 50 micromolar ATP, and a substrate peptide, KRREILSRRPSYR. The substrate peptide may be chemically synthesized, recombinantly produced or obtained commercially by the trade name CREBtide. Approximately 9,000 compounds from the DIVERSet collection of the ChemBridge Corporation (San Diego, Calif.) were tested at a final concentration of 100 micromolar, using the Kinase-Glo™ Luminescent Kinase assay (Promega) to measure residual ATP levels after the kinase reaction as described by the manufacturer. Compounds are identified as having inhibitory activity when they reduce PCK zeta activity by at least 50% when tested at a concentration of 100 micromolar.

Compound: CN(C)CCCn1cc(C2=C(c3c[nH]c4ccccc34)C(=O)NC2=O)c2ccccc21 [bisindoylmaleimide I]
- effect on VEGF stimulated dextran permeability ([1]; bisindoylmaleimide I 5 micromolar, 30 min before tracer, VEGF 50 ng/mL, BREC): partly reduces VEGF stimulated permeability

Compound: CCOC(=O)c1c(NC(C)=O)sc(/C(C)=N/O)c1-c1ccccc1 [formula (I), ethyl (5E)-2-acetylimino-5-[1-(hydroxyamino)ethylidene]-4-phenyl-thiophene-3-carboxylate]
- IC50 (PKC-zeta [2]): 10 µM
- effect on VEGF induced endothelial permeability in vitro ([1]; PKC-zeta I1 at 10 and 25 micromolar, 30 min before tracer, VEGF 50 ng/mL): completely blocks VEGF induced endothelial permeability; also recorded: effectively blocks VEGF induced permeability in vitro
- effect on baseline endothelial permeability ([1]; PKC-zeta I1 at 10 and 25 micromolar, no VEGF): reduces baseline permeability
- reduction of Evan's blue bound albumin flux ([3]; about 10 micromolar final concentration in the eye): 50%
- effect on VEGF induced permeability in vivo ([3]; about 10 micromolar in the eye): blocks VEGF induced permeability in vivo
- cell death (ethidium homodimer-1 staining) (BREC cultures): no increase in cell death; also recorded: does not alter cell viability or increase cell death
- cell viability (calcein AM incorporation) (BREC cultures): no loss of cell viability; also recorded: does not alter cell viability

Compound: CCOC(=O)c1c(NC(=S)N2CCN(S(C)(=O)=O)CC2)sc(C)c1-c1ccccc1 [formula (III)]
- inhibits PKC zeta with x-fold greater efficacy than the compound of formula (I) (PKC-zeta [4]): 1.2 fold

Compound: CC(C)OC(=O)c1c(-c2ccc(Cl)c(Cl)c2)csc1N [formula (IV)]
- inhibits PKC zeta with x-fold greater efficacy than the compound of formula (I) (PKC-zeta [4]): 1.8 fold

Compound: CCOC(=O)c1c(NC(C)=O)sc(C)c1-c1ccc(OC)cc1 [formula (V)]
- inhibits PKC zeta with x-fold greater efficacy than the compound of formula (I) (PKC-zeta [4]): 2.6 fold

Compound: myr-SIYRRGARRWRKL (Myristoyl-SIYRRGARRWRKL)
- effect on VEGF stimulated endothelial permeability to 70 kDa RITC-dextran ([1]; 30 min before tracer, VEGF 50 ng/mL, BREC): reduces and prevents a VEGF stimulated increase in permeability
- effect on VEGF stimulated endothelial permeability to 70 kDa RITC-dextran ([1]; 30 min before tracer, VEGF 50 ng/mL, BREC, listed as myristoylated peptide inhibitor of PKC zeta): reduced or prevented permeability
- dose dependence of effect on VEGF stimulated endothelial permeability ([1]; peptide inhibitor 6.25, 12.5, 25 and 50 nM, VEGF 50 ng/mL, BREC): reduces VEGF stimulated endothelial permeability in a dose dependent manner
